According to patent US20070049585A1, “BENZAMIDE AND BENZOATE ANTI-HIV COMPOUNDS” (priority 2004, published 2007):
pIC50: −log10 of the molar value. “Also recorded” adds a separate entry of the source. Like-named read-outs stand apart in the source and are kept apart here.

Experiments:
[1] = test system: HIV MDR 769 strain; assay: Inhibition of multi-drug resistant HIV MDR 769 strain replication in HeLa cells, without pre-medication; format: cell-based
Excerpt: (§1) In order to study the viral replication in vitro, the GenPhar (Mt. Pleasant, S.C.) AV-Finder™-HIV Drug Discovery Assay was used, that consists of two components: (1) a cloned, continuous-passage HeLa cell line containing an HIV-1 tat-activated molecular switch and a Green Fluorescent Protein reporter gene and (2) a recombinant adenovirus (rAd) vector containing the genes for all three of the HIV-1 receptor/co-receptors (CD4, CXCR4, and CCR5) to transduce into HeLa cells and convert them into highly susceptible HIV-1 indicator cells for use in the assay. The indicator cells over-express the HIV-1 receptor genes and are readily infected with any HIV-1 strain or isolate. All HIV-1 strains tested thus far, regardless of co-receptor preference, and all subtypes or clades of HIV-1 will infect these indicator cells. Infected cells fluoresce brightly so that the inhibition of virus replication by potential antiviral drugs can be readily detected and quantified using standard laboratory plate reader technology.
(§2) Detector plates are set up at day 1 by adding HeLa cells (3000/well) to the adenovirus AD-3R in DMEM containing CCS in 96-well plates and to incubate at 37° C. under 95% humidity and 5% CO2 for 2 days. […] At day 4, the medium was replaced by fresh medium containing the corresponding concentration of the compounds of interest. The infectivity was assessed by measuring the fluorescence on each well at day 7 ([…]). […] At day 5, the medium was replaced by fresh medium containing the corresponding concentration of compounds of interest and the infectivity was assessed by measuring the fluorescence on each well at day 8. Results are expressed as percentage of inhibition of the viral replication.

[2] = test system: HIV-1 IIIB; assay: AV-Finder-HIV Drug Discovery Assay: inhibition of HIV-1 IIIB replication in HeLa indicator cells (GFP fluorescence); format: cell-based
Excerpt: as §1, with “All HIV-1 strains tested thus far, regardless of co-receptor preference, and all subtypes or clades of HIV-1 will infect these indicator cells.” left out
as §2
Procaine HCl was used either alone dissolved in water (SP01) or in an Anticort-like formulation (SP01A) containing zinc sulfate heptahydrate and ascorbic acid at the ratio of about 27-107/1/1.3-2.0 (for example 200 mg procaine HCl with 7.5 mg of zinc sulfate heptahydrate and 12.5 mg of ascorbic acid; Xu, J. et al. J Pharmacol. Exper. Ther. 2003 307:1148-1157) (Samaritan Pharmaceuticals).

[3] = test system: HeLa cells; assay: MTT cytotoxicity assay (mitochondrial integrity); format: cell-based, human
Procedure: Following the above described cell treatment protocol, the levels of cellular 3-(4,5-dimethylthiazol-2-yl)-2,5-diphenyl tetrazolium bromide (MTT) reduction, a measure of mitochondrial integrity, were determined in order to examine whether the compounds tested were cytotoxic.

## CCN(CC)CCNC(=O)c1ccc(N)cc1 [SP100, procainamide]
[1]
  effect on HIV MDR 769 strain replication: effectively blocked

## CCN(CC)CCOC(=O)c1ccc(N)cc1 [SP01, 4-aminobenzoic acid 2-(diethylamino)ethyl ester]
[1]
  effect on HIV MDR 769 strain replication: effectively blocked
[1]; concentrations higher than 1 nM
  effect on HIV MDR 769 strain replication: not effective
[1]; concentrations up to 1 nM
  inhibition of HIV MDR 769 viral replication: 75%
[2]; 48 hours pretreatment, all concentrations tested
  inhibition of HIV replication: 75%
[2]; human cells
  efficacy in reducing HIV-1 IIIB replication compared with AZT, ddI or 3TC: efficacy higher than AZT, ddI or 3TC
[2]; no pre-medication, concentrations up to 0.1 μM
  efficacy of inhibition of HIV-1 IIIB viral replication compared with 3TC: higher efficacy than the classical antiviral agent 3TC
[3]; all concentrations tested, up to 100 μM
  cell toxicity by MTT cytotoxicity assay: devoid of cell toxicity

## Cc1cn([C@H]2C[C@H](N=[N+]=[N-])[C@@H](CO)O2)c(=O)[nH]c1=O [AZT]
[1]
  effect on HIV MDR 769 strain replication: ineffective; also recorded: not effective
[2]; 24 hours pre-medication, 30 pM
  inhibition of the replication at the peak concentration: < 30%
[2]; 48 hours pretreatment
  pIC50: 7.52
[3]
  pIC50: 3.79

## O=c1[nH]cnc2c1ncn2[C@H]1CC[C@@H](CO)O1 [ddI]
[2]; no pre-medication, 0.01 μM
  inhibition of viral replication (strongest inhibition): 26.37±26.11%
[3]
  pIC50: 4.05

## Nc1ccn([C@@H]2CS[C@H](CO)O2)c(=O)n1 [3TC]
[2]; no pre-medication, dose-dependent, maximal concentrations
  inhibition of viral replication reached (maximal): 90%
